Measurements reported in the supplement of paper PMC11061612.

Assays:
Assay in all cases: combination Emax (second highest fraction inhibited in the dose matrix, 72 h); higher = more inhibition; extreme values may be limits of the assay
SH-4 (Melanoma) = test system: SH-4 (Melanoma)
Summary of the method: (§1)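 Bliss excess equals the observed combination effect minus the expected value EA + EB − EA·EB, where EA and EB are the effects of each agent alone. Combination Emax is the second-highest inhibition within the matrix. Inhibition was scaled from CellTiter-Glo 2.0 luminescence, with 0 set by vehicle wells and 1 by blank wells, after 72 hours of two-drug dosing of cells plated in 1536-well plates.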

[1] = test system: EN (Endometrial Carcinoma)
Summary of the method: as §1

[2] = test system: RKO (Colorectal Carcinoma)
Summary of the method: as §1

HMV-II (Melanoma) = test system: HMV-II (Melanoma)
Summary of the method: as §1

[3] = test system: SU-DHL-6 (B-Cell Non-Hodgkin's Lymphoma)
Summary of the method: as §1

[4] = test system: RT-112 (Bladder Carcinoma)
Summary of the method: as §1

NB14 (Neuroblastoma) = test system: NB14 (Neuroblastoma)
Summary of the method: as §1

[5] = test system: SW1116 (Colorectal Carcinoma)
Summary of the method: as §1

[6] = test system: K5 (Thyroid Gland Carcinoma)
Summary of the method: as §1

[7] = test system: SW1271 (Small Cell Lung Carcinoma)
Summary of the method: as §1

[8] = test system: RPMI-6666 (Non-Cancerous)
Summary of the method: as §1

[9] = test system: Hs-633T (Other Solid Carcinomas)
Summary of the method: as §1

Mewo (Melanoma) = test system: Mewo (Melanoma)
Summary of the method: as §1

[10] = test system: SK-OV-3 (Ovarian Carcinoma)
Summary of the method: as §1

[11] = test system: 8305C (Thyroid Gland Carcinoma)
Summary of the method: as §1

[12] = test system: LU-139 (Small Cell Lung Carcinoma)
Summary of the method: as §1

[13] = test system: OC-314 (Ovarian Carcinoma)
Summary of the method: as §1

[14] = test system: NCI-H69 (Small Cell Lung Carcinoma)
Summary of the method: as §1

[15] = test system: PCI-30 (Head and Neck Carcinoma)
Summary of the method: as §1

[16] = test system: HO-1-u-1 (Oral Cavity Carcinoma)
Summary of the method: as §1

SMILES | combination Emax (SH-4 (Melanoma)) | combination Emax [1] | combination Emax [2] | combination Emax (HMV-II (Melanoma)) | combination Emax [3] | combination Emax [4] | combination Emax (NB14 (Neuroblastoma)) | combination Emax [5] | combination Emax [6] | combination Emax [7] | combination Emax [8] | combination Emax [9] | combination Emax (Mewo (Melanoma)) | combination Emax [10] | combination Emax [11] | combination Emax [12] | combination Emax [13] | combination Emax [14] | combination Emax [15] | combination Emax [16]
Cc1c2c(nn1C)CSCc1cc(n(C)n1)CSc1cc(c3ccccc3c1)OCCCc1c(C(=O)O)n(C)c3c-2c(Cl)ccc13 [AZD5991] + Nc1ccn([C@@H]2O[C@H](CO)[C@@H](O)C2(F)F)c(=O)n1 [Gemcitabine] (first compound max 1 µM, 7x7, partner max 0.3 µM) | 0.495 | 0.602 | 0.936 | 0.595 | 1 | 0.834 | 0.853 | 0.203 | 0.544 | 0.604 | 0.947 | 0.837 | 0.465 | 0.341 | 0.374 | 0.855 | 0.917 | 0.457 | 0.559 | 0.378
C[C@@H](Nc1cc(F)cc(F)c1)c1cc(C(=O)N(C)C)cc2c(=O)cc(N3CCOCC3)oc12 [AZD8186] + C1CN(CCC1(C(=O)N[C@@H](CCO)C2=CC=C(C=C2)Cl)N)C3=NC=NC4=C3C=CN4 [AZD5363] (first compound max 10 µM, 7x7, partner max 10 µM) | 0.214 | 0.536 | 0.433 | 0.229 | 1 | 0.254 | 0.213 | 0.206 | 0.466 | 0.289 | 0.672 | 0.297 | 0.345 | 0.426 | 0.369 | 0.0726 | 0.562 | 0.536 | 0.313 | 0.752
Cc1c2c(nn1C)CSCc1cc(n(C)n1)CSc1cc(c3ccccc3c1)OCCCc1c(C(=O)O)n(C)c3c-2c(Cl)ccc13 [AZD5991] + CS(=O)(=O)CCNCc1ccc(-c2ccc3ncnc(Nc4ccc(OCc5cccc(F)c5)c(Cl)c4)c3c2)o1 [Lapatinib] (first compound max 1 µM, 7x7, partner max 10 µM) | 0.197 | 0.519 | 0.455 | 0.64 | 1 | 0.827 | 0.936 | 0.395 | 0.237 | 0.424 | 0.555 | 0.206 | 0.481 | 0.347 | 0.346 | 0.201 | 0.506 | 0.443 | 0.257 | 0.713
N#Cc1cnc(Nc2cc(NC[C@H]3CNCCO3)c(C(F)(F)F)cn2)cn1 [SRA737] + Nc1ccn([C@@H]2O[C@H](CO)[C@@H](O)C2(F)F)c(=O)n1 [Gemcitabine] (first compound max 10 µM, 7x7, partner max 0.3 µM) | 0.577 | 0.634 | 0.923 | 0.64 | – | 0.899 | 1 | 0.649 | 0.689 | 0.647 | 0.933 | 0.916 | 0.788 | 0.543 | 0.679 | 0.832 | 0.979 | 0.778 | 0.736 | 0.826
C[C@@H](Oc1cc(-c2cnn(C3CCNCC3)c2)cnc1N)c1c(Cl)ccc(F)c1Cl [Crizotinib] + CC1=C(C(=CC=C1)Cl)NC(=O)C2=CN=C(S2)NC3=CC(=NC(=N3)C)N4CCN(CC4)CCO [Dasatinib] (first compound max 10 µM, 7x7, partner max 2 µM) | 0.556 | 0.389 | 0.771 | 0.768 | 1 | 0.974 | 0.976 | 0.619 | 0.81 | 0.714 | 0.686 | 1 | 0.481 | 0.391 | 0.843 | 0.688 | 0.838 | 0.771 | 0.721 | 0.863
C[C@@H](Nc1cc(F)cc(F)c1)c1cc(C(=O)N(C)C)cc2c(=O)cc(N3CCOCC3)oc12 [AZD8186] + CC(=O)c1c(C)c2cnc(Nc3ccc(N4CCNCC4)cn3)nc2n(C2CCCC2)c1=O [Palbociclib] (first compound max 10 µM, 7x7, partner max 10 µM) | 0.233 | 0.387 | 0.514 | 0.469 | 0.999 | 0.352 | 0.536 | 0.175 | 0.509 | 0.411 | 0.691 | 0.586 | 0.449 | 0.394 | 0.564 | 0.115 | 0.594 | 0.558 | 0.353 | 0.378
N#Cc1cnc(Nc2cc(NC[C@H]3CNCCO3)c(C(F)(F)F)cn2)cn1 [SRA737] + O=c1[nH]cc(F)c(=O)[nH]1 [5-Fluorouracil] (first compound max 10 µM, 7x7, partner max 20 µM) | 0.383 | 0.483 | 0.656 | 0.303 | 0.748 | 0.712 | 0.97 | 0.193 | 0.451 | 0.156 | 0.901 | 0.413 | 0.38 | – | 0.392 | 0.356 | 0.902 | 0.152 | 0.226 | 0.667
